In patent US7667052B2 (Eisai R&D Management Co., Ltd., priority 2003, dated 2010):
Read-outs that look alike come from different tables or passages of the source.

What was measured:
[1] = tested on: VEGF production in U251 human glioma cell; test: VEGF production suppressing action under low oxygen, ELISA; format: cell-based; conditions: for VEGF production suppressing action: IC50: U251, low oxygen (2% O2) incubator 18 hours; for VEGF production suppression, in words: U251, low oxygen stimulation
Experimental: U251 human glioma cell cultured in DULBECCO-modified eagle medium (DMEM; manufactured by SIGMA Co., Ltd.) containing 10% fetal calf serum, penicillin (100 unit/ml) and streptomycin (100 μg/ml) was dispensed in 96-well plates by 4×10^4 cells/well. After culturing at 37° C. overnight in a CO2 incubator (5% CO2), the media were removed, and 180 μl of the above-mentioned incubation solution was charged. After adding 20 μL of the above-mentioned incubation solution containing the test compound diluted with 3-fold succession, they were incubated in a low oxygen (2% O2) incubator for 18 hours. The supernatants thereof were measured by an ELISA kit (Immunobiology Research Institute).
Concentration at which the amount of VEGF expressed by low oxygen stimulation was suppressed to 50% (IC50 value) was determined and results are shown in Table 9. […] The activities of 11107F and 11107G were very weak.

[2] = tested on: human breast cancer BSY-1 cell; test: Solid cancer proliferation suppressing action, subcutaneous transplant; format: in vivo, mice; conditions: 10 mg/kg once intravenous
Experimental: In order to study solid cancer proliferation suppressing action of 11107B in vivo, human breast cancer BSY-1 cell was transplanted to the subcutaneous body sides of mice. The animals were grouped so that the average of the volumes of the respective groups became uniform, when it reached about 100 mm^3. Control group was made as 10 mice and 11107B-administering groups were made as 5 mice. 11107B was administrated for the 11107B-administering groups once by intravenous injection so as to be 10 mg/kg, and a vehicle was administered to the control group. The tumor volumes on the fifth day, eighth day, 12th day and 15th day were measured, and relative tumor volumes were determined setting the tumor volume at the initiation of administration as 1.

[3] = tested on: transcription from VEGF promoter; test: VEGF transcription-suppressing activity, VEGF-PLAP reporter in U251/1-8 cell; format: cell-based; conditions: Homo sapiens, U-251, U251/1-8 cell, PLAP activity, low oxygen 18 hours
Procedure, shortened: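 U251 glioma clone stably carrying a ~2.3 kb human VEGF promoter–secreted PLAP reporter, 4×10^4 cells/well, exposed to 3-fold dilutions of compound for 18 h under low oxygen. Supernatant PLAP read by chemiluminescence at pH 10.0; IC50 = 50% suppression, normoxia 0%, hypoxia 100%.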

[4] = Solubility (physico-chemical properties of the 11107 analogues); conditions: in dimethylsulfoxide, pyridine, methanol, acetone and water
[5] = tested on: P388 mouse leukemia cell; conditions: Seki-Asano M. et al, J. Antibiotics Vol. 47, 1395-1401, 1994; cited from earlier work
[6] = read-out: IC50 values of VEGF transcription-suppressing activity (range given)
[7] = read-out: VEGF transcription suppressing activity (IC50: nM)

| Structure (SMILES) | IC50 [3, 6] [nM] | Solubility [4] | further results |
| --- | --- | --- | --- |
| CCC(O)C(C)C1OC1CC(C)/C=C/C=C(\C)C1OC(=O)CC(O)CCC(C)(O)C(O)/C=C/C1C (stereo not shown) [11107 A] |  |  | VEGF production suppressing action: IC50 [1]: 111 ng/mL |
| CCC(O)C(C)C1OC1CC(C)/C=C/C=C(\C)C1OC(=O)CC(O)CCC(C)(O)C(OC(C)=O)/C=C/C1C (stereo not shown) [11107 B] |  |  | relative tumor volume ([2]; day 1 after the administration (volume at initiation of administration set as 1)): 1; relative tumor volume ([2]; day 5 after the administration): 1.08; relative tumor volume ([2]; day 8 after the administration): 1.28; relative tumor volume ([2]; day 12 after the administration): 1.40; relative tumor volume ([2]; day 15 after the administration): 1.70; VEGF production suppressing action: IC50 [1]: 0.8 ng/mL |
| CCC(=O)C(C)C1OC1CC(C)/C=C/C=C(\C)C1OC(=O)CC(O)CCC(C)(O)C(OC(C)=O)/C=C/C1C (stereo not shown) [11107 C] |  |  | VEGF production suppressing action: IC50 [1]: 3.0 ng/mL |
| CCC(O)C(C)C1OC1CC(C)(O)/C=C/C=C(\C)C1OC(=O)CC(O)CCC(C)(O)C(OC(C)=O)/C=C/C1C (stereo not shown) [11107 D] |  |  | VEGF production suppressing action: IC50 [1]: 3.2 ng/mL |
| CCC(O)C(C)(O)C1OC1CC(C)/C=C/C=C(\C)C1OC(=O)CC(O)CCC(C)(O)C(OC(C)=O)/C=C/C1C (stereo not shown) [11107 E] |  |  | VEGF production suppressing action: IC50 [1]: 36.3 ng/mL |
| CCC(=O)C(C)C1OC1CC(C)/C=C/C=C(\C)C1OC(=O)CC(O)CCC(C)(O)C(OC(C)=O)/C=C/C1C (stereo not shown) [11107C, (8E,12E,14E)-7-Acetoxy-3,6-dihydroxy-6,10,12,16,20-pentamethyl-21-oxo-18,19-epoxytricosa-8,12,14-trien-11-olide] | 1 to 100 |  | IC50 [3, 7]: 8.2 nM; VEGF production suppression, in words [1]: strong successive to 11107B |
| CCC(O)C(C)C1OC1CC(C)(O)/C=C/C=C(\C)C1OC(=O)CC(O)CCC(C)(O)C(OC(C)=O)/C=C/C1C (stereo not shown) [11107D] | 1 to 100 | soluble in dimethylsulfoxide, pyridine, methanol and acetone, and slightly soluble in water | IC50 [3, 7]: 6.6 nM; VEGF production suppression, in words [1]: strong successive to 11107B |
| CCC(O)C(C)C1OC1CC(C)(O)/C=C/C=C(\C)C1OC(=O)CC(O)CCC(C)(O)C(O)/C=C/C1C (stereo not shown) [11107F] |  |  | VEGF production suppression, in words [1]: very weak |
| CCC(O)C(C)(O)C1OC1CC(C)/C=C/C=C(\C)C1OC(=O)CC(O)CCC(C)(O)C(O)/C=C/C1C (stereo not shown) [11107G] |  | soluble in dimethylsulfoxide, pyridine, methanol and acetone, and slightly soluble in water | VEGF production suppression, in words [1]: very weak |
| CCC(=O)OC1/C=C/C(C)C(/C(C)=C/C=C/C(C)CC2OC2C(C)C(O)CC)OC(=O)CC(O)CCC1(C)O (stereo not shown) [11107I] | 1 to 100 | soluble in dimethylsulfoxide, pyridine, methanol and acetone, and slightly soluble in water |  |
| CC(=O)OC1/C=C/C(C)C(/C(C)=C/C=C/C(C)CC2OC2C(C)C(C)O)OC(=O)CC(O)CCC1(C)O (stereo not shown) [11107J] | 1 to 100 | soluble in dimethylsulfoxide, pyridine, methanol and acetone, and slightly soluble in water | IC50 [3, 7]: 5.9 nM |
| CCC(O)C(C)C1OC1CC(C)/C=C/C=C(\C)C1OC(=O)CC(O)CC(O)C(C)(O)C(OC(C)=O)/C=C/C1C (stereo not shown) [11107K] | 1 to 100 | soluble in dimethylsulfoxide, pyridine, methanol and acetone, and slightly soluble in water | IC50 [3, 7]: 2.7 nM |
| CCC(O)C(C)C1OC1CC(C)/C=C/C=C(\C)C1OC(=O)CC(O)CC(OC(C)=O)C(C)(O)C(OC(C)=O)/C=C/C1C (stereo not shown) [11107L] | 1 to 100 | soluble in dimethylsulfoxide, pyridine, methanol and acetone, and slightly soluble in water |  |
| CCC(O)C(C)C1OC1CC(C)/C=C/C=C(\C)C1OC(=O)CC(OC(C)=O)CCC(C)(O)C(OC(C)=O)/C=C/C1C (stereo not shown) [11107M] | 1 to 100 | soluble in dimethylsulfoxide, pyridine, methanol and acetone, and slightly soluble in water |  |
| CCC(O)C(C)C1OC1CC(C)/C=C/C=C(\C)C1OC(=O)CC(O)CCC(O)(COC(C)=O)C(OC(C)=O)/C=C/C1C (stereo not shown) [11107N] | 1 to 100 | soluble in dimethylsulfoxide, pyridine, methanol and acetone, and slightly soluble in water |  |
| CC(=O)OC1/C=C/C(C)C(/C(C)=C/C=C/C(C)CC(O)/C=C(\C)C(=O)C(C)O)OC(=O)CC(O)CCC1(C)O (stereo not shown) [11107Q] | 1 to 100 | soluble in dimethylsulfoxide, pyridine, methanol and acetone, and slightly soluble in water |  |
| CC(=O)OC1/C=C/C(C)C(/C(C)=C/C=C/C(C)CC2OC2C(C)O)OC(=O)CC(O)CCC1(C)O (stereo not shown) [11107R] | 1 to 100 | soluble in dimethylsulfoxide, pyridine, methanol and acetone, and slightly soluble in water |  |
| CCC(O)CC1OC1CC(C)/C=C/C=C(\C)C1OC(=O)CC(O)CCC(C)(O)C(OC(C)=O)/C=C/C1C (stereo not shown) [11107T] | 1 to 100 | soluble in dimethylsulfoxide, pyridine, methanol and acetone, and slightly soluble in water |  |
| CCC(O)C(C)C1OC1CC/C=C/C=C(\C)C1OC(=O)CC(O)CCC(C)(O)C(OC(C)=O)/C=C/C1C (stereo not shown) [11107U] | 1 to 100 | soluble in dimethylsulfoxide, pyridine, methanol and acetone, and slightly soluble in water |  |
| CCC(O)C(C)C1OC1CC(C)/C=C/C=C/C1OC(=O)CC(O)CCC(C)(O)C(OC(C)=O)/C=C/C1C (stereo not shown) [11107W] | 1 to 100 | soluble in dimethylsulfoxide, pyridine, methanol and acetone, and slightly soluble in water |  |
| CCC(O)C(C)C1OC1CC(C)/C=C/C=C(\C)C1OC(=O)CC(O)CC(O)C(C)C(OC(C)=O)/C=C/C1C (stereo not shown) [11107Y] | 1 to 100 | soluble in dimethylsulfoxide, pyridine, methanol and acetone, and slightly soluble in water |  |
| CCC(O)C(C)C1OC1CC(C)/C=C/C=C(\C)C1C/C=C/C(OC(C)=O)C(C)(O)CCC(O)CC(=O)O1 (stereo not shown) [11107Z] | 1 to 100 | soluble in dimethylsulfoxide, pyridine, methanol and acetone, and slightly soluble in water |  |
| CCC(OC)C(C)C1OC1C(O)C(C)/C=C/C=C(\C)C1OC(=O)CC(O)CCC(C)(O)C(OC(C)=O)/C=C/C1C (stereo not shown) [FD895] |  |  | effect in an animal experiment using P388 mouse leukemia cell [5]: ineffective |
